The test system of series [1] is Staphylococcus aureus. Description: Antibacterial activity against methicillin-resistant Staphylococcus aureus NCTC10442 assessed as reduction in bacterial growth after 24 hrs by CLSI based broth micro dilution method. In kind it is functional.
Series [2] concerns Staphylococcus aureus. Kind of series: Antibacterial activity against Staphylococcus aureus ATCC 29213 assessed as reduction in bacterial growth after 24 hrs by CLSI based broth micro dilution method. In kind it is functional.
In series [3] the test system is Staphylococcus aureus. Kind of series: Antibacterial activity against methicillin-resistant Staphylococcus aureus N315 assessed as reduction in bacterial growth after 24 hrs by CLSI based broth micro dilution method. In kind it is functional.
Series [4] deals with Escherichia coli. Kind of series: Antibacterial activity against Escherichia coli ATCC 25922 assessed as reduction in bacterial growth after 24 hrs by CLSI based broth micro dilution method. In kind it is functional.
Series [5] can be described thus: Hemolytic activity in rabbit RBC after 60 mins. In kind it is ADME, cell-based, Oryctolagus cuniculus, Erythrocyte. To be noted: rabbit red blood cells (erythrocytes).
Series [6] concerns Staphylococcus aureus. Description: Bactericidal activity against Staphylococcus aureus ATCC 29213 assessed as reduction in bacterial load at MIC concentration preincubated for 240 mins followed by compound washout further subculturing and measured after 24 hrs by time-kill assay. In kind it is functional. To be noted: 4 h.
Series [7] has as its system Staphylococcus aureus. Description: Bactericidal activity against Staphylococcus aureus ATCC 29213 assessed as reduction in bacterial load at 2 time of MIC concentration preincubated for 240 mins followed by compound washout further subculturing and measured after 24 hrs by time-kill assay. The conditions noted are these: 4 h. In kind it is functional.
Series [8] concerns Staphylococcus aureus. Description: Antibacterial activity against Staphylococcus aureus ATCC 29213 infected in C57BL6 mouse assessed as reduction in bacterial load at 33.65 mmol/L, administered topically at 2 hrs interval for 3 days. In kind it is functional. The conditions noted are these: time 3 day.

≈ marks a conversion by molar mass, not a printed value.

What is called MIC is the smallest concentration in the dilution series that meets the test's criterion for growth inhibition. The term HC50 denotes the concentration giving 50% haemolysis. Read a high HC50 as weaker haemolysis.

With `CC(C)=CCOc1ccc(/C=C/C(=O)c2ccc(OCC=C(C)C)cc2OCC(=O)NCCCNC(=N)N)cc1`, the MIC in series [1] came to 1.56 µg/mL (≈ 2.84 µM); in series [2], 1.56 µg/mL (≈ 2.84 µM); in series [3], 1.56 µg/mL (≈ 2.84 µM); in series [4], 25 µg/mL (≈ 45.6 µM). Also, the 50% haemolytic concentration (HC50) at 1 h in series [5] was 56.5 µg/mL.
In the case of `CC(C)=CCOc1ccc(/C=C/C(=O)c2ccc(OCC=C(C)C)cc2OCC(=O)N[C@@H](CCCNC(=N)N)C(=O)NCCCN(C)C)cc1`, the MIC in series [4] stood at 25 µg/mL (≈ 36.2 µM). The HC50 at 1 h in series [5] amounted to 181 µg/mL.
As for `CCCCN(CCCC)CCCNC(=O)COc1cc(OCC=C(C)C)ccc1C(=O)/C=C/c1ccc(OCC=C(C)C)cc1`, the minimal inhibitory concentration (MIC) was 6.25 µg/mL (≈ 10.1 µM) in series [1], 12.5 µg/mL (≈ 20.2 µM) in series [2], 6.25 µg/mL (≈ 10.1 µM) in series [3] and more than 50 µg/mL in series [4]. Also, the concentration for 50% haemolysis (HC50) at 1 h in series [5] is more than 200 µg/mL.
Turning to `CC(C)=CCOc1ccc(/C=C/C(=O)c2ccc(OCC=C(C)C)cc2OCC(=O)NCCCN2CCN(C)CC2)cc1`, the MIC in series [1] is 6.25 µg/mL (≈ 10.6 µM); in series [2], 6.25 µg/mL (≈ 10.6 µM); in series [3], 6.25 µg/mL (≈ 10.6 µM); in series [4] it was more than 100 µg/mL. In series [5], this compound showed an HC50 at 1 h of 36.5 µg/mL.
Consider `COC(=O)[C@H](Cc1c[nH]cn1)NC(=O)COc1cc(OCC=C(C)C)ccc1C(=O)/C=C/c1ccc(OCC=C(C)C)cc1`, for which the MIC in series [2] and in series [4] was more than 50 µg/mL each time. Besides, the HC50 at 1 h in series [5] was more than 200 µg/mL.
As for `CCN(CC)CCCNC(=O)COc1cc(OCC=C(C)C)ccc1C(=O)/C=C/c1ccc(OCC=C(C)C)cc1`, the minimum inhibitory concentration (MIC) in series [1] is 6.25 µg/mL (≈ 11.1 µM); in series [2], 6.25 µg/mL (≈ 11.1 µM); in series [4] it was more than 50 µg/mL. Moreover, the 50% haemolytic concentration (HC50) at 1 h in series [5] is 65.7 µg/mL.
As to `COC(=O)[C@H](CCCNC(=N)N)NC(=O)[C@H](CCCNC(=N)N)NC(=O)COc1cc(OCC=C(C)C)ccc1C(=O)/C=C/c1ccc(OCC=C(C)C)cc1`, the MIC in series [1] was determined as 3.13 µg/mL (≈ 4.03 µM); in series [2] it was 3.13 µg/mL (≈ 4.03 µM); in series [3], 3.13 µg/mL (≈ 4.03 µM); in series [4] it was 12.5 µg/mL (≈ 16.1 µM). The 50% haemolytic concentration (HC50) at 1 h in series [5] is 120 µg/mL.
In the case of `O=C(N[C@H](CO)[C@H](O)c1ccc([N+](=O)[O-])cc1)C(Cl)Cl` [CHLORAMPHENICOL], the MIC in series [4] is 3.13 µg/mL (≈ 9.69 µM).
With `CC(C)=CCOc1ccc(/C=C/C(=O)c2ccc(OCC=C(C)C)cc2OCC(=O)N[C@@H](CCCNC(=N)N)C(=O)NCCCN)cc1`, the MIC in series [4] worked out at 6.25 µg/mL (≈ 9.43 µM). For the same compound, in series [5], the concentration for 50% haemolysis (HC50) at 1 h was determined as 277 µg/mL.
Consider `CC(C)=CCOc1ccc(/C=C/C(=O)c2ccc(OCC=C(C)C)cc2OCC(=O)NCCCN)cc1`, for which the minimum inhibitory concentration (MIC) in series [1] is 3.13 µg/mL (≈ 6.18 µM); in series [2], 3.13 µg/mL (≈ 6.18 µM); in series [3], 1.56 µg/mL (≈ 3.08 µM); in series [4], 50 µg/mL (≈ 98.7 µM). The compound further displayed an HC50 at 1 h in series [5] of 47 µg/mL.
For the compound `CC(C)=CCOc1ccc(/C=C/C(=O)c2ccc(OCC=C(C)C)cc2OCC(=O)NCCCN(C)C)cc1`, the MIC is 12.5 µg/mL (≈ 23.4 µM) in series [1], 12.5 µg/mL (≈ 23.4 µM) in series [2], 12.5 µg/mL (≈ 23.4 µM) in series [3] and more than 50 µg/mL in series [4]. Also, the concentration for 50% haemolysis (HC50) at 1 h in series [5] is 78.2 µg/mL.
In the case of `CCCNC(=O)COc1cc(OCC=C(C)C)ccc1C(=O)/C=C/c1ccc(OCC=C(C)C)cc1`, the MIC in series [1] is more than 50 µg/mL; in series [2], more than 50 µg/mL; in series [3], more than 50 µg/mL; in series [4] it was more than 100 µg/mL. In addition, in series [5], the HC50 at 1 h was more than 200 µg/mL.
Regarding `CC(C)=CCOc1ccc(/C=C/C(=O)c2ccc(OCC=C(C)C)cc2OCC(=O)O)cc1` [SOFALCONE], the MIC in series [1] is more than 50 µg/mL; in series [2], more than 50 µg/mL; in series [3], 50 µg/mL (≈ 111 µM); in series [4], more than 50 µg/mL. Moreover, in series [5], the HC50 at 1 h was more than 200 µg/mL.
Consider `CC(C)=CCOc1ccc(/C=C/C(=O)c2ccc(OCC=C(C)C)cc2OCC(=O)N[C@@H](CCCNC(=N)N)C(N)=O)cc1`, for which the MIC in series [1] was 3.13 µg/mL (≈ 5.17 µM); in series [2], 3.13 µg/mL (≈ 5.17 µM); in series [3], 1.56 µg/mL (≈ 2.58 µM); in series [4], 12.5 µg/mL (≈ 20.6 µM). This compound displayed an HC50 at 1 h in series [5] of 78.7 µg/mL.
For `COC(=O)[C@H](CCCNC(=N)N)NC(=O)COc1cc(OCC=C(C)C)ccc1C(=O)/C=C/c1ccc(OCC=C(C)C)cc1`, the MIC in series [1] came out at 1.56 µg/mL (≈ 2.51 µM); in series [2] it was 1.56 µg/mL (≈ 2.51 µM); in series [3], 1.56 µg/mL (≈ 2.51 µM); in series [4], 50 µg/mL (≈ 80.5 µM). Further, the HC50 at 1 h in series [5] is 70 µg/mL.
For `CN[C@H](CC(C)C)C(=O)N[C@H]1C(=O)N[C@@H](CC(N)=O)C(=O)N[C@H]2C(=O)N[C@H]3C(=O)N[C@H](C(=O)N[C@H](C(=O)O)c4cc(O)cc(O)c4-c4cc3ccc4O)[C@H](O)c3ccc(c(Cl)c3)Oc3cc2cc(c3O[C@@H]2O[C@H](CO)[C@@H](O)[C@H](O)[C@H]2O[C@H]2C[C@](C)(N)[C@H](O)[C@H](C)O2)Oc2ccc(cc2Cl)[C@H]1O` [VANCOMYCIN], the “log(activity)” value turned out to be 1.1 in series [6], 1.1 in series [7] and 4.16 in series [8]. Also, the values for the MIC in series [1], in series [2] and in series [3] were 1.56 µg/mL (≈ 1.08 µM), 0.78 µg/mL (≈ 0.538 µM) and 1.56 µg/mL (≈ 1.08 µM), respectively.
Consider `CC(C)=CCOc1ccc(/C=C/C(=O)c2ccc(OCC=C(C)C)cc2OCC(=O)NCCCN2CCCC2)cc1`, for which the MIC in series [1] is 6.25 µg/mL (≈ 11.1 µM); in series [2], 6.25 µg/mL (≈ 11.1 µM); in series [3], 3.13 µg/mL (≈ 5.58 µM); in series [4], more than 50 µg/mL. Further, the HC50 at 1 h in series [5] amounted to 53.4 µg/mL.

For the origin of these results see ChEMBL document CHEMBL4765377, “Design, synthesis, and evaluation of amphiphilic sofalcone derivatives as potent Gram-positive antibacterial agents” (Eur J Med Chem, 2020).
